# Marks after values point to notes of the source that are not given here.
# Test system: platelets isolated from human blood
# Experiment: Measurement of platelet aggregation (turbidimetric method, aggregometer)
# Format: cell-based
# Conditions: 1 µM triene molecules; Collagen-induced platelet aggregation; measured after 4 min
# Description: Aggregation tests were performed on platelets isolated from human blood in presence or not of different dihydroxylated triene compounds with different double bond geometry: ZEE, EZE or ZZZ. Platelet aggregation was determined by a standard turbidimetric method using a dual aggregometer (CHRONO-LOG, USA). The levels of light transmission were calibrated as 0 % for a platelet suspension and 100% for the Tyrode/HEPES solution (pH 7.35). 400 µl of platelet suspension in a vial was preincubated for 1 min at 37 °C under a continuous stirring condition, 1 µl of sample in ethanol was added for incubation, the activators (collagen, arachidonic acid, or U46619) were added after 2 min of incubation and the extent of platelet aggregation was measured after 4 min running. Other compounds were prepared using the same procedure or by conversion of PDX and compared to similar compounds of different configurations ZEE or EEE. Table I: Effects of 1 µM triene molecules on Collagen-induced platelet aggregation
row,SMILES,% inhibition
1,"CCCCC/C=C\C[C@H](O)/C=C/C=C\C=C\[C@@H](O)CCCC(=O)O [5(S),12(S)-diHETE, 5(S),12(S)-dihydroxy-eicosa-6E,8Z,10E,14Z tetraenoic acid]",74.9** %
2,"CCCCC/C=C\C[C@@H](O)/C=C/C=C/C=C/[C@@H](O)CCCC(=O)O [6-trans LTB4, 5(S),12(R)-dihydroxy-eicosa-6E,8E,10E,14Z-tetraenoic acid]",8.1%
3,"CCCCC/C=C\C[C@H](O)/C=C/C=C/C=C/[C@@H](O)CCCC(=O)O [6trans-12-epi LTB4, 5(S),12(S)-dihydroxy-eicosa-6E,8E,10E,14Z-tetraenoic acid]",1.8%
4,"CCCCC[C@H](O)/C=C/C=C\C=C\[C@@H](O)C/C=C\CCCC(=O)O [8(S),15(S)-diHETE, 8(S),15(S)-dihydroxy-eicosa-5Z,9E,11Z,13E -tetraenoic acid]",66.5** %
5,"CC/C=C\C[C@H](O)/C=C/C=C\C=C\[C@H](O)C/C=C\C/C=C\CCC(=O)O [10(R),17(S)-diOH-22:6, 10(R),17(S)-dihydroxy-docosa-4Z,7Z,11E,13Z,15E,17Z-hexaenoic acid]",70.0** %
6,"CCCCCCCC[C@H](O)/C=C/C=C/C=C\[C@@H](O)CCCC(=O)O [12-epi LTB3, 5(S),12(S)-dihydroxy-eicosa-6Z,8E,10E,-trienoic acid]",7.4%
7,"CCCCC/C=C\C[C@H](O)/C=C/C=C/C=C\[C@@H](O)CCCC(=O)O [12-epi LTB4, 5(S),12(S)-dihydroxy-eicosa-6Z,8E,10E,14Z-tetraenoic acid]",3.9%
8,"CCCCCCCC[C@@H](O)/C=C/C=C/C=C\[C@@H](O)CCCC(=O)O [LTB3, 5(S),12(R)-dihydroxy-eicosa-6Z,8E,10E,-trienoic acid]",5.0%
9,"CCCCC/C=C\C[C@@H](O)/C=C/C=C/C=C\[C@@H](O)CCCC(=O)O [LTB4, 5(S),12(R)-dihydroxy-eicosa-6Z,8E,10E,14Z-tetraenoic acid]",3.4%
10,"CC/C=C\C[C@H](O)/C=C/C=C\C=C\[C@@H](O)C/C=C\C/C=C\CCC(=O)O [PDX, 10S,17S-dihydroxy-docosa-4Z,7Z,11E,13Z,15E,19Z-hexaenoic acid]",56.1** %
11,"CCCCC[C@H](O)/C=C/C=C\C=C\[C@@H](O)CCCCCCCCC(=O)O [diOH-22:3, 10(S),17(S)-dihydroxy-docosa-11E,13Z,15E,-trienoic acid]",63.8** %

# From patent EP2283839A1, “Polyunsaturated hydroxylated molecule having an eze geometry and its use in therapy” (Institut National des Sciences Appliquées de Lyon, priority 2009, dated 2011)
